We go through nine compounds from PubChem BioAssay (NCI).

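Assay format: 96-well plates, 48-hour exposure. At the GI50, growth is halved. At the TGI there is no net growth.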

What all share (assay): growth of human tumour cells (NCI), 48 h
Experiment [1] deals with HT29 colon.
For experiment [2], the system named is HS 578T breast.
The subject of experiment [3] is SK-MEL-5 melanoma.
Experiment [4] deals with IGROV1 ovarian.
The subject of experiment [5] is HCT-15 colon.
Experiment [6] relates to SW-620 colon.
In experiment [7] the test system is OVCAR-4 ovarian.
Experiment [8] relates to MDA-MB-435.
In experiment [9] the test system is COLO 205 colon.
For experiment [10], the system named is CAKI-1 renal.

With `CCOc1ccc(/C=N/Nc2cc(C)nc3ccc(Cl)cc23)cc1`, the GI50 in experiment [1] was 1.9 µM; in experiment [2], 2.15 µM; in experiment [3], 1.72 µM; in experiment [4] it was 1.93 µM; in experiment [5], 1.55 µM; in [6] it was 1.97 µM. The GI50 is 1.79 µM in experiment [7], 1.75 µM in experiment [8], 1.91 µM in experiment [9] and 1.78 µM in [10]. Besides, the TGI in experiment [1] came out at 3.47 µM; in experiment [2] it was 4.67 µM; in experiment [3], 3.09 µM; in experiment [4], 3.64 µM; in experiment [5] it was 2.94 µM; in experiment [6], 4.02 µM. Moreover, the TGI in [7] amounted to 3.51 µM; in experiment [8] it was 3.26 µM; in experiment [9], 3.47 µM; in experiment [10] it was 3.2 µM.
Consider `COc1ccccc1/C=C1\CCC(CN(C)C)C1=O` (stereo not given), for which the TGI was 16.1 µM in experiment [1]; > 45.8 µM in experiment [2]; 30.4 µM in experiment [3]; 32.7 µM in [4]; 7.85 µM in experiment [5]; 6 µM in [6]. The TGI in experiment [7] amounted to 19.6 µM; in experiment [8], 25.2 µM; in experiment [9], 8.38 µM; in experiment [10] it was 12 µM.
Take `O=Cc1ncc(-c2ccc(C(F)(F)F)cc2)c(NC2CCCCCC2)n1`: the GI50 in [1], in [2], in [3], in experiment [4], in experiment [5] and in experiment [6] was > 10 µM each time. Further, the GI50 in experiment [7], in experiment [8], in experiment [9] and in [10] was > 10 µM throughout. The TGI in [1], in experiment [2], in experiment [3], in [4], in experiment [5] and in experiment [6] was > 10 µM in each case. The TGI in experiment [7], in [8], in experiment [9] and in experiment [10] was > 10 µM each time.
Turning to `Clc1ccc(N/N=C/c2ccccn2)nc1`, the GI50 in experiment [1] is 0.574 µM; in experiment [2] it was 3.39 µM; in [3] it was 0.423 µM; in experiment [4], 0.441 µM; in experiment [5], 0.333 µM; in [6] it was 0.468 µM. For the same compound, the GI50 is 0.321 µM in [7], 0.56 µM in experiment [8], 0.342 µM in [9] and 0.341 µM in experiment [10]. The TGI is > 100 µM in [1]; > 100 µM in experiment [2]; 2.59 µM in experiment [3]; > 100 µM in experiment [4]; > 100 µM in experiment [5]; > 100 µM in experiment [6]. In addition, the TGI in experiment [7] is > 100 µM; in experiment [8] it was > 100 µM; in experiment [9] it was 18.6 µM; in experiment [10], > 22.7 µM.
As to `C=C1C(=O)O[C@H]2[C@H]1CC/C(COC(=O)NCc1c[nH]c3ccc(OC)cc13)=C\CC[C@@]1(C)O[C@@H]21`, the GI50 in experiment [1] is 1.02 µM; in experiment [2], 2.75 µM; in [3], 1.38 µM; in experiment [4], 2.55 µM; in [5], 1.34 µM; in experiment [6], 0.45 µM. The GI50 in experiment [7] was 2.14 µM; in [8] it was 1.27 µM; in [9], 1.22 µM; in experiment [10], 1.46 µM. Besides, the TGI in experiment [1] came out at 2.71 µM; in experiment [2], 16.2 µM; in [3], 2.69 µM; in [4], 7.38 µM; in experiment [5], 2.73 µM; in experiment [6], 1.92 µM. For the same compound, the TGI is 11.8 µM in experiment [7], 2.87 µM in [8], 2.71 µM in [9] and 3.28 µM in experiment [10].
Regarding `CC(/C=C/C=C/C=C/C=C/C=C/C(O)=C1/C(=O)C(CCC(=O)O)N(C)C1=O)=C\C(C)C(OC1CC(O)C(O)C(C)O1)C(C)C` (stereo not given), the TGI in experiment [1] is 14 µM; in [2], 32.3 µM; in experiment [3] it was 3.85 µM; in experiment [4], 4.48 µM; in [5], 19.4 µM; in [6], 14.6 µM. Further, the TGI amounted to 40.1 µM in experiment [7], 7.93 µM in [8], 4.48 µM in experiment [9] and 12.6 µM in [10].
Turning to `CC(C)Cc1ccc(C(C)/C=C2\CCC(CN3CCOCC3)C2=O)cc1` (stereo not given), the TGI in [1] is 16.7 µM; in experiment [2], > 100 µM; in [3], 24.3 µM; in [4], 19.8 µM; in experiment [5] it was 16.4 µM; in [6], 10.8 µM. For the same compound, the TGI came out at 33.4 µM in experiment [7], 20.2 µM in [8], 48.4 µM in experiment [9] and 33.5 µM in [10].
With `Clc1ccc(-c2nc(-c3c[nH]c4ncccc34)cs2)cc1`, the GI50 is > 100 µM in experiment [1]; > 100 µM in experiment [2]; > 100 µM in experiment [3]; 4.78 µM in experiment [4]; > 100 µM in experiment [5]; 36.3 µM in [6]. Further, the GI50 in experiment [7] was 65.8 µM; in experiment [8], > 100 µM; in [9], > 100 µM; in [10] it was > 100 µM. For the same compound, the TGI in experiment [1], in experiment [2], in experiment [3], in experiment [4], in experiment [5] and in [6] was > 100 µM in each case. The TGI in [7], in [8], in [9] and in [10] was > 100 µM in each case.
As for `CCS(=O)(=O)c1ccc(OC)c(Nc2ncc(-c3cccc(-c4ccccc4F)c3)o2)c1`, the GI50 was 15 µM in experiment [1]; 3.63 µM in [2]; > 14.6 µM in experiment [3]; 6.1 µM in experiment [4]; 16.8 µM in [5]; > 25 µM in experiment [6]. Further, the GI50 in [7] is 3.79 µM; in experiment [8] it was > 25 µM; in [9], > 20.1 µM; in [10] it was 10.8 µM. Also, the TGI in experiment [1] is > 25 µM; in [2], 15.8 µM; in experiment [3] it was > 25 µM; in [4] it was 20.7 µM; in experiment [5] it was > 25 µM; in experiment [6], > 25 µM. Further, the TGI in experiment [7], in experiment [8], in experiment [9] and in [10] was > 25 µM throughout.
